Assay results as given in ChEMBL document CHEMBL1201862, “PubChem BioAssay data set” (2004).
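Protocol summary: plate cells (96-well), add compound at 5 concentrations, incubate 48 h, interpolate endpoints linearly. GI50 = concentration required for 50% inhibition of growth.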 Active and inactive are the calls of the source. Rule as the data show it: active = GI50 up to about 1.1 µM and inactive = higher. Where a SMILES comes first, the peptide text is derived from it. The star is where a group is joined. Boc = CC(C)(C)OC(=O)*; OBn = c1ccc(CO*)cc1

Legend:
Test in all cases: NCI anticancer screen, dose series, 48 h
NCI-H23 = tested on: NCI-H23
RXF 393 = tested on: RXF 393
TK-10 = tested on: TK-10
SW-620 = tested on: SW-620
M14 = tested on: M14
HOP-62 = tested on: HOP-62
HCC 2998 = tested on: HCC 2998
KM12 = tested on: KM12
HT-29 = tested on: HT-29
A498 = tested on: A498
CAKI-1 = tested on: CAKI-1
CCRF-CEM = tested on: CCRF-CEM
OVCAR-3 = tested on: OVCAR-3
UACC-257 = tested on: UACC-257
SF-268 = tested on: SF-268
EKVX = tested on: EKVX
SF-295 = tested on: SF-295
MDA-MB-231 = tested on: MDA-MB-231
MCF7 = tested on: MCF7

Measured: GI50

c1ccc(OC2=NC3=S(S2)SC(Oc2ccccc2)=N3)cc1
inactive: NCI-H23 21.3 µM | RXF 393 6.01 µM | TK-10 17.8 µM | SW-620 15 µM | M14 18.4 µM | HOP-62 26.2 µM | HCC 2998 19.5 µM | KM12 16.9 µM | HT-29 21.4 µM | A498 25.1 µM | CAKI-1 17.7 µM | CCRF-CEM 9.59 µM | OVCAR-3 14.5 µM | UACC-257 16.7 µM | SF-268 21.7 µM | EKVX 21.5 µM | SF-295 17 µM

N#C/C(=C/NC(N)=S)C(N)=O
inactive: NCI-H23 > 100 µM | RXF 393 > 100 µM | TK-10 > 100 µM | SW-620 > 100 µM | M14 > 100 µM | MDA-MB-231 > 100 µM | HOP-62 > 100 µM | HCC 2998 > 100 µM | KM12 > 100 µM | HT-29 > 100 µM | A498 > 100 µM | CAKI-1 > 100 µM | OVCAR-3 > 100 µM | UACC-257 > 100 µM | SF-268 > 100 µM | EKVX > 100 µM | MCF7 > 100 µM | SF-295 > 100 µM

CC1(C)C2CCC(N)(C2)C1O (centres undefined)
inactive: NCI-H23 > 100 µM | RXF 393 > 100 µM | TK-10 > 100 µM | SW-620 > 100 µM | M14 > 100 µM | HOP-62 > 100 µM | HCC 2998 > 100 µM | KM12 > 100 µM | A498 > 100 µM | CAKI-1 > 100 µM | CCRF-CEM > 100 µM | OVCAR-3 > 100 µM | UACC-257 > 100 µM | EKVX > 100 µM | MCF7 > 100 µM | SF-295 > 100 µM

CC(=O)Nc1ccc(C(=O)NN2C(=O)C(Cl)C2c2ccccc2)cc1 (centres undefined)
inactive: NCI-H23 > 100 µM | RXF 393 > 100 µM | TK-10 > 100 µM | SW-620 > 100 µM | M14 > 100 µM | HOP-62 > 100 µM | HT-29 > 100 µM | A498 > 100 µM | CAKI-1 > 100 µM | CCRF-CEM > 100 µM | OVCAR-3 > 100 µM | UACC-257 > 100 µM | SF-268 > 100 µM | EKVX > 100 µM | SF-295 > 100 µM

CC(N)Cc1cccc(C(F)(F)F)c1 (centres undefined)
inactive: NCI-H23 > 100 µM | RXF 393 > 100 µM | TK-10 > 100 µM | SW-620 > 100 µM | M14 > 100 µM | HOP-62 > 100 µM | HCC 2998 > 100 µM | KM12 > 100 µM | HT-29 > 100 µM | A498 > 100 µM | CAKI-1 > 100 µM | CCRF-CEM > 100 µM | OVCAR-3 > 100 µM | UACC-257 > 100 µM | SF-268 > 100 µM | EKVX > 100 µM | SF-295 > 100 µM

C[C@@]12[Se]c3ccccc3[C@]1(C)[Se]c1ccccc12
inactive: NCI-H23 > 100 µM | RXF 393 2.75 µM | TK-10 > 100 µM | SW-620 3.27 µM | M14 > 100 µM | HCC 2998 6.47 µM | KM12 6.95 µM | HT-29 3.79 µM | CAKI-1 > 100 µM | CCRF-CEM 4.39 µM | OVCAR-3 > 100 µM | SF-268 > 100 µM | EKVX > 100 µM | SF-295 38.7 µM

N#CC12C3C4CC5C6C4C1C6C(O)(C53)N2Cc1ccccc1 (centres undefined)
inactive: NCI-H23 > 100 µM | RXF 393 > 100 µM | TK-10 > 100 µM | SW-620 > 100 µM | M14 > 100 µM | HOP-62 > 100 µM | HCC 2998 > 100 µM | KM12 > 100 µM | HT-29 > 100 µM | A498 > 100 µM | CAKI-1 > 100 µM | CCRF-CEM > 100 µM | OVCAR-3 > 100 µM | UACC-257 > 100 µM | SF-268 > 100 µM | EKVX > 100 µM | SF-295 > 100 µM

COc1ccc2c(c1)Cc1c-2[nH]c2cc3c(cc2c1=O)OCO3
inactive: NCI-H23 16.3 µM | RXF 393 4.01 µM | TK-10 9.31 µM | SW-620 27.5 µM | M14 14.2 µM | HOP-62 17.1 µM | HCC 2998 11.6 µM | KM12 9.48 µM | HT-29 6.44 µM | CAKI-1 32.1 µM | CCRF-CEM 4.33 µM | OVCAR-3 16.7 µM | SF-268 18.7 µM | EKVX 23.8 µM | SF-295 16.3 µM

CCCCCCCCCCCCCCCCCC(CCCCCCCCCCCCCCCCC)OP(=O)(O)O
inactive: NCI-H23 > 100 µM | RXF 393 > 100 µM | TK-10 > 100 µM | SW-620 > 100 µM | M14 > 100 µM | HCC 2998 > 100 µM | KM12 > 100 µM | HT-29 > 100 µM | A498 > 100 µM | CAKI-1 > 100 µM | CCRF-CEM > 100 µM | OVCAR-3 > 100 µM | UACC-257 > 100 µM | SF-268 > 100 µM | EKVX > 100 µM | SF-295 > 100 µM

C=CCSC[C@H](NC(=O)COc1ccccc1)C(=O)NC(C(=O)OCc1ccc([N+](=O)[O-])cc1)=C(C)C
inactive: RXF 393 49.7 µM | M14 47.9 µM | HOP-62 > 100 µM | HCC 2998 > 100 µM | KM12 73.5 µM | HT-29 39.1 µM | A498 12.2 µM | CCRF-CEM 45.5 µM | OVCAR-3 45.7 µM | UACC-257 52.4 µM | SF-268 > 100 µM | EKVX 43.7 µM | SF-295 50.8 µM

O=C1C(Cl)C(c2cccc([N+](=O)[O-])c2)N1n1cnc2ccccc2c1=O (centres undefined)
inactive: NCI-H23 > 100 µM | RXF 393 > 100 µM | TK-10 > 100 µM | SW-620 > 100 µM | M14 > 100 µM | HOP-62 > 100 µM | HCC 2998 > 100 µM | KM12 > 100 µM | HT-29 > 100 µM | CAKI-1 91.2 µM | CCRF-CEM > 10 µM | OVCAR-3 78.7 µM | UACC-257 55.2 µM | SF-268 > 100 µM | EKVX > 100 µM | SF-295 > 100 µM

Cc1cc(NCCCCCCNc2cc(C)nc3cc(N(C)C)ccc23)c2ccc(N(C)C)cc2n1
inactive: NCI-H23 25.1 µM | RXF 393 > 100 µM | TK-10 > 100 µM | SW-620 28.6 µM | M14 49.9 µM | HOP-62 54.2 µM | HCC 2998 22.4 µM | KM12 11.8 µM | HT-29 36.1 µM | A498 > 100 µM | CAKI-1 55.8 µM | CCRF-CEM 22.3 µM | OVCAR-3 57.1 µM | UACC-257 31.6 µM | SF-268 57.9 µM | EKVX > 100 µM | SF-295 28.2 µM

COC(=O)c1cc2ccccc2c2nc3ccccc3c(Cl)c12
inactive: NCI-H23 > 100 µM | RXF 393 > 100 µM | TK-10 > 100 µM | SW-620 > 100 µM | M14 > 100 µM | HOP-62 > 100 µM | HCC 2998 > 100 µM | KM12 > 100 µM | HT-29 > 100 µM | A498 > 100 µM | CAKI-1 > 100 µM | CCRF-CEM > 100 µM | OVCAR-3 > 100 µM | UACC-257 > 100 µM | SF-268 > 100 µM | EKVX > 100 µM | SF-295 > 100 µM

CN1CCN(c2nc(N)c(Br)c(Cl)n2)CC1
inactive: NCI-H23 > 100 µM | RXF 393 > 100 µM | TK-10 > 100 µM | SW-620 > 100 µM | M14 > 100 µM | HOP-62 > 100 µM | HCC 2998 > 100 µM | KM12 > 100 µM | CAKI-1 > 100 µM | CCRF-CEM > 100 µM | OVCAR-3 > 100 µM | UACC-257 > 100 µM | SF-268 > 100 µM | EKVX > 100 µM | SF-295 > 100 µM

CC(C)CC(=O)NC(C(=O)NC(C(=O)NC(CC(C)C)C(O)CC(=O)NC(C)C(=O)NC(CC(C)C)C(O)CC(=O)O)C(C)C)C(C)C (centres undefined)
inactive: NCI-H23 > 100 µM | TK-10 > 100 µM | SW-620 > 100 µM | M14 > 100 µM | MDA-MB-231 > 100 µM | HOP-62 > 100 µM | HCC 2998 > 100 µM | KM12 > 100 µM | HT-29 > 100 µM | A498 > 100 µM | CAKI-1 > 100 µM | CCRF-CEM > 100 µM | OVCAR-3 > 100 µM | UACC-257 > 100 µM | SF-268 > 100 µM | EKVX > 100 µM | MCF7 > 100 µM | SF-295 > 100 µM

Cc1ccc2c(c1)c(=O)c1c(NCCN(C)C)ccc3nnn2c31
inactive: NCI-H23 3.6 µM | RXF 393 2.88 µM | TK-10 3.95 µM | SW-620 1.57 µM | M14 4.25 µM | HOP-62 3.59 µM | HCC 2998 3.4 µM | KM12 2.45 µM | HT-29 1.47 µM | A498 4.88 µM | CAKI-1 2.02 µM | CCRF-CEM 2.21 µM | OVCAR-3 5.55 µM | UACC-257 3.6 µM | SF-268 4.24 µM | EKVX 3.64 µM | SF-295 1.33 µM

CC(C)CC(NC(=O)OC(C)(C)C)C(=O)N1CCCC1C(=O)OCc1ccccc1 (stereo not drawn) (Boc-Leu-Pro-OBn; configuration not given here)
inactive: NCI-H23 > 100 µM | RXF 393 > 100 µM | TK-10 > 100 µM | SW-620 > 100 µM | M14 99.3 µM | MDA-MB-231 > 100 µM | KM12 > 100 µM | HT-29 41.4 µM | A498 > 100 µM | CAKI-1 > 100 µM | OVCAR-3 > 100 µM | UACC-257 > 100 µM | SF-268 > 100 µM | EKVX > 100 µM | MCF7 67.8 µM | SF-295 > 100 µM
